Like-named read-outs stand apart in the source and are kept apart here.
System: HCV 1b-377-neo replicon cells
Assay: HCV replicon assay, HCV 1b-377-neo replicon cells (1b FRET)
Type: cell-based, Hepatitis C virus genotype 1b
Details: HCV 1b-377-neo replicon cells, HCV 1b genotype, read-out: EC50 range against HCV 1b (Table 2, Range)
Summary of the method: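 Compounds tested in HCV genotype 1b-377-neo replicon cells with a FRET read-out. Cells resistant to a reference NS5A inhibitor through a Y2065H NS5A mutation were run alongside wild-type cells.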

Row | SMILES | EC50 (Hepatitis C virus) [pM] | EC50 [pM]
1 | O=C(NC1CCCC1)N[C@@H](C(=O)N1C[C@H](O)C[C@H]1c1ncc(-c2ccc(-c3ccc(-c4cnc([C@@H]5C[C@@H](O)CN5C(=O)[C@H](NC(=O)NC5CCCC5)c5ccccc5)[nH]4)cc3)cc2)[nH]1)c1ccccc1 [Example 24-15, N′,N′′′-(4,4′-biphenyldiylbis(1H-imidazole-5,2-diyl((2S,4R)-4-hydroxy-2,1-pyrrolidinediyl)((1R)-2-oxo-1-phenyl-2,1-ethanediyl)))bis(1-cyclopentylurea)] | 1000 to 99000 | 
2 | CN(C)[C@@H](C(=O)N1C[C@@H](O)C[C@H]1c1ncc(-c2ccc(-c3ccc(-c4cnc([C@@H]5C[C@H](O)CN5C(=O)[C@@H](c5ccccc5)N(C)C)[nH]4)cc3)cc2)[nH]1)c1ccccc1 [Example 24-16, (3S,5S,3′S,5′S)-5,5′-(4,4′-biphenyldiylbis(1H-imidazole-5,2-diyl))bis(1-((2R)-2-(dimethylamino)-2-phenylacetyl)-3-pyrrolidinol)] | 1 to 999 | 
3 | COC(=O)N[C@@H](C(=O)N1C[C@@H](O)C[C@H]1c1ncc(-c2ccc(-c3ccc(-c4cnc([C@@H]5C[C@H](O)CN5C(=O)[C@H](NC(=O)OC)c5ccccc5)[nH]4)cc3)cc2)[nH]1)c1ccccc1 [Example 24-17, dimethyl (4,4′-biphenyldiylbis(1H-imidazole-5,2-diyl((2S,4S)-4-hydroxy-2,1-pyrrolidinediyl)((1R)-2-oxo-1-phenyl-2,1-ethanediyl)))biscarbamate] | 1 to 999 | 
4 | O=C([C@H](O)c1ccccc1)N1C[C@@H](O)C[C@H]1c1ncc(-c2ccc(-c3ccc(-c4cnc([C@@H]5C[C@H](O)CN5C(=O)[C@H](O)c5ccccc5)[nH]4)cc3)cc2)[nH]1 [Example 24-18, (3S,5S,3′S,5′S)-5,5′-(4,4′-biphenyldiylbis(1H-imidazole-5,2-diyl))bis(1-((2R)-2-hydroxy-2-phenylacetyl)-3-pyrrolidinol)] | 1 to 999 | 
5 | COC(=O)N[C@@H](C(=O)N(C)[C@@H](C)c1ncc(-c2ccc(-c3ccc(-c4cnc([C@H](C)N(C)C(=O)[C@H](NC(=O)OC)c5ccccc5)[nH]4)cc3)cc2)[nH]1)c1ccccc1 [Example 24-18-1, dimethyl (4,4′-biphenyldiylbis(1H-imidazole-5,2-diyl(1S)-1,1-ethanediyl(methylimino)((1R)-2-oxo-1-phenyl-2,1-ethanediyl)))biscarbamate] | 1 to 999 | 
6 | C[C@@H](c1ncc(-c2ccc(-c3ccc(-c4cnc([C@H](C)N(C)C(=O)[C@@H](c5ccccc5)N(C)C)[nH]4)cc3)cc2)[nH]1)N(C)C(=O)[C@@H](c1ccccc1)N(C)C [Example 24-18-2, (2R,2′R)-N,N′-(4,4′-biphenyldiylbis(1H-imidazole-5,2-diyl(1S)-1,1-ethanediyl))bis(2-(dimethylamino)N-methyl-2-phenylacetamide)] | 1 to 999 | 
7 | C[C@@H](c1ncc(-c2ccc(-c3ccc(-c4cnc([C@H](C)N(C)C(=O)[C@@H](c5ccccc5)N5CCCCC5)[nH]4)cc3)cc2)[nH]1)N(C)C(=O)[C@@H](c1ccccc1)N1CCCCC1 [Example 24-18-3, (2R,2′R)-N,N′-(4,4′-biphenyldiylbis(1H-imidazole-5,2-diyl(1S)-1,1-ethanediyl))bis(N-methyl-2-phenyl-2-(1-piperidinyl)acetamide)] | 1 to 999 | 
8 | COC(=O)N[C@@H](C(=O)N(C)[C@@H](C)c1ncc(-c2ccc(-c3ccc(-c4cnc([C@@H]5CCCN5C(=O)[C@H](NC(=O)OC)c5ccccc5)[nH]4)cc3)cc2)[nH]1)c1ccccc1 [Example 24-18-4, methyl ((1R)-2-((2S)-2-(5-(4′-(2-((1S)-1-(((2R)-2-((methoxycarbonyl)amino)-2-phenylacetyl)(methyl)amino)ethyl)-1H-imidazol-5-yl)-4-biphenylyl)-1H-imidazol-2-yl)-1-pyrrolidinyl)-2-oxo-1-phenylethyl)carbamate] | 1 to 999 | 
9 | C[C@@H](c1ncc(-c2ccc(-c3ccc(-c4cnc([C@@H]5CCCN5C(=O)[C@@H](c5ccccc5)N(C)C)[nH]4)cc3)cc2)[nH]1)N(C)C(=O)[C@@H](c1ccccc1)N(C)C [Example 24-18-5, (2R)-2-(dimethylamino)-N-((1S)-1-(5-(4′-(2-((2S)-1-((2R)-2-(dimethylamino)-2-phenylacetyl)-2-pyrrolidinyl)-1H-imidazol-5-yl)-4-biphenylyl)-1H-imidazol-2-yl)ethyl)-N-methyl-2-phenylacetamide] | 1 to 999 | 
10 | C[C@@H](c1ncc(-c2ccc(-c3ccc(-c4cnc([C@@H]5CCCN5C(=O)[C@@H](c5ccccc5)N5CCCCC5)[nH]4)cc3)cc2)[nH]1)N(C)C(=O)[C@@H](c1ccccc1)N1CCCCC1 [Example 24-18-6, (2R)-N-methyl-2-phenyl-N-((1S)-1-(5-(4′-(2-((2S)-1-((2R)-2-phenyl-2-(1-piperidinyl)acetyl)-2-pyrrolidinyl)-1H-imidazol-5-yl)-4-biphenylyl)-1H-imidazol-2-yl)ethyl)-2-(1-piperidinyl)acetamide] | 1 to 999 | 
11 | COC(=O)N[C@H](C(=O)N1CCC[C@H]1c1ncc(-c2ccc(-c3ccc(-c4cnc([C@@H]5CCCN5C(=O)[C@@H](NC(=O)OC)C(C)C)[nH]4)cc3)cc2)[nH]1)C(C)C [Example 24-23] | 1 to 999 | 
12 | CC(=O)N[C@@H](C(=O)N1CCC[C@H]1c1ncc(-c2ccc(-c3ccc(-c4cnc([C@@H]5CCCN5C(=O)[C@H](NC(C)=O)c5ccccc5)[nH]4)cc3)cc2)[nH]1)c1ccccc1 [Example 25, N,N′-(4,4′-biphenyldiylbis(1H-imidazole-5,2-diyl(2S)-2,1-pyrrolidinediyl((1R)-2-oxo-1-phenyl-2,1-ethanediyl)))diacetamide] | 1 to 999 | 
13 | O=C(N[C@@H](C(=O)N1CCC[C@H]1c1ncc(-c2ccc(-c3ccc(-c4cnc([C@@H]5CCCN5C(=O)[C@H](NC(=O)[C@H]5CCCO5)c5ccccc5)[nH]4)cc3)cc2)[nH]1)c1ccccc1)[C@H]1CCCO1 [Example 25-1, (2R,2′R)-N,N′-(4,4′-biphenyldiylbis(1H-imidazole-5,2-diyl(2S)-2,1-pyrrolidinediyl((1R)-2-oxo-1-phenyl-2,1-ethanediyl)))ditetrahydro-2-furancarboxamide] |  | 1 to 999
14 | Cn1cncc1C(=O)N[C@@H](C(=O)N1CCC[C@H]1c1ncc(-c2ccc(-c3ccc(-c4cnc([C@@H]5CCCN5C(=O)[C@H](NC(=O)c5cncn5C)c5ccccc5)[nH]4)cc3)cc2)[nH]1)c1ccccc1 [Example 25-2, N,N′-(4,4′-biphenyldiylbis(1H-imidazole-5,2-diyl(2S)-2,1-pyrrolidinediyl((1R)-2-oxo-1-phenyl-2,1-ethanediyl)))bis(1-methyl-1H-imidazole-5-carboxamide)] | 1 to 999 | 
15 | CN1CCC[C@H]1C(=O)N[C@@H](C(=O)N1CCC[C@H]1c1ncc(-c2ccc(-c3ccc(-c4cnc([C@@H]5CCCN5C(=O)[C@H](NC(=O)[C@@H]5CCCN5C)c5ccccc5)[nH]4)cc3)cc2)[nH]1)c1ccccc1 [Example 25-3, (2S,2′S)-N,N′-(4,4′-biphenyldiylbis(1H-imidazole-5,2-diyl(2S)-2,1-pyrrolidinediyl((1R)-2-oxo-1-phenyl-2,1-ethanediyl)))bis(1-methyl-2-pyrrolidinecarboxamide)] | 1 to 999 | 
16 | O=C(Cc1cccnc1)N[C@@H](C(=O)N1CCC[C@H]1c1ncc(-c2ccc(-c3ccc(-c4cnc([C@@H]5CCCN5C(=O)[C@H](NC(=O)Cc5cccnc5)c5ccccc5)[nH]4)cc3)cc2)[nH]1)c1ccccc1 [Example 25-4, N,N′-(4,4′-biphenyldiylbis(1H-imidazole-5,2-diyl(2S)-2,1-pyrrolidinediyl((1R)-2-oxo-1-phenyl-2,1-ethanediyl)))bis(2-(3-pyridinyl)acetamide)] | 1 to 999 | 
17 | CN(C)CC(=O)N[C@@H](C(=O)N1CCC[C@H]1c1ncc(-c2ccc(-c3ccc(-c4cnc([C@@H]5CCCN5C(=O)[C@H](NC(=O)CN(C)C)c5ccccc5)[nH]4)cc3)cc2)[nH]1)c1ccccc1 [Example 25-5, N,N′-(4,4′-biphenyldiylbis(1H-imidazole-5,2-diyl(2S)-2,1-pyrrolidinediyl((1R)-2-oxo-1-phenyl-2,1-ethanediyl)))bis(2-(dimethylamino)acetamide)] | 1 to 999 | 
18 | O=C(N[C@@H](C(=O)N1CCC[C@H]1c1ncc(-c2ccc(-c3ccc(-c4cnc([C@@H]5CCCN5C(=O)[C@H](NC(=O)N5CCOCC5)c5ccccc5)[nH]4)cc3)cc2)[nH]1)c1ccccc1)N1CCOCC1 [Example 25-6, N,N′-(4,4′-biphenyldiylbis(1H-imidazole-5,2-diyl(2S)-2,1-pyrrolidinediyl((1R)-2-oxo-1-phenyl-2,1-ethanediyl)))di(4-morpholinecarboxamide)] | 1000 to 99000 | 
19 | CN1CCN(C(=O)N[C@@H](C(=O)N2CCC[C@H]2c2ncc(-c3ccc(-c4ccc(-c5cnc([C@@H]6CCCN6C(=O)[C@H](NC(=O)N6CCN(C)CC6)c6ccccc6)[nH]5)cc4)cc3)[nH]2)c2ccccc2)CC1 [Example 25-7, N,N′-(4,4′-biphenyldiylbis(1H-imidazole-5,2-diyl(2S)-2,1-pyrrolidinediyl((1R)-2-oxo-1-phenyl-2,1-ethanediyl)))bis(4-methyl-1-piperazinecarboxamide)] | 1000 to 99000 | 
20 | O=C(Nc1cccnc1)N[C@@H](C(=O)N1CCC[C@H]1c1ncc(-c2ccc(-c3ccc(-c4cnc([C@@H]5CCCN5C(=O)[C@H](NC(=O)Nc5cccnc5)c5ccccc5)[nH]4)cc3)cc2)[nH]1)c1ccccc1 [Example 25-8, N,N″-(4,4′-biphenyldiylbis(1H-imidazole-5,2-diyl(2S)-2,1-pyrrolidinediyl((1R)-2-oxo-1-phenyl-2,1-ethanediyl)))bis(3-(3-pyridinyl)urea)] | 1 to 999 | 
21 | COC(=O)N[C@@H](C(=O)N1CCC[C@H]1c1ncc(-c2ccc(-c3ccc(-c4cnc([C@@H]5CCCN5C(=O)[C@H](NC(=O)OC)C(C)C)[nH]4)cc3)cc2)[nH]1)C(C)C [Example 26, methyl ((1R)-1-(((2S)-2-(5-(4′-(2-((2S)-1-((2R)-2-((methoxycarbonyl)amino)-3-methylbutanoyl)-2-pyrrolidinyl)-1H-imidazol-5-yl)-4-biphenylyl)-1H-imidazol-2-yl)-1-pyrrolidinyl)carbonyl)-2-methylpropyl)carbamate] | 1000 to 99000 | 
